Columns and labels:
[1] = tested on: Radical scavenging activity; assay: Antioxidant activity assessed as inhibition of DPPH radical formation by Hatano's method; format: functional
[2] = tested on: Radical scavenging activity; assay: Antioxidant activity assessed as inhibition of DPPH radical formation; format: functional

| pEC50 [1] | pEC50 [2] | SMILES |
| --- | --- | --- |
| 4.14 | – | COc1ccc(Nc2cc3sc(C)c(C)c3cc2C)cc1 |
| 4.3 | – | COc1ccc(Nc2cccc3c(C)c(C)sc23)cc1 |
| – | 3.81 | COc1cc(Br)c(Nc2cc3sc(C)c(C)c3cc2C)cc1OC |
| 3.61 | – | COc1ccc(Nc2c(C(=O)O)sc3ccccc23)c(OC)c1 |
| 2.26 | – | Cc1sc2c(Nc3ccccn3)cccc2c1C |
| – | 2.43 | Cc1sc2c(C)c(Nc3ccccc3Br)cc(C)c2c1C |
| 3.84 | – | CCOC(=O)c1sc2ccccc2c1Nc1ccc(O)cc1O |
| – | 2.39 | Cc1cc2c(C)c(C)sc2cc1Nc1ccc(C=O)cc1 |
| – | 3.69 | COc1ccc(Nc2cc3sc(C)c(C)c3cc2C)c(Br)c1 |
| – | 3.89 | COc1ccc(Nc2cc(C)c3c(C)c(C)sc3c2C)cc1 |
| – | 3.05 | Cc1cc2c(C)c(C)sc2cc1Nc1ccccc1Br |
| – | 3.38 | COc1cccc(Nc2cc3sc(C)c(C)c3cc2C)c1 |
| 2.5 | – | Cc1sc2c(Nc3cccnc3)cccc2c1C |
| – | 2.1 | Cc1sc2c(C)c(Nc3ccccn3)cc(C)c2c1C |
| 3.77 | – | CCOC(=O)c1sc2ccccc2c1Nc1ccc(OC)cc1OC |
| 2.81 | – | COc1cccc(Nc2cccc3c(C)c(C)sc23)c1 |
| 1.84 | – | Cc1sc2c(Nc3cccc(C#N)c3)cccc2c1C |
| – | 3.91 | CCOC(=O)c1sc2ccccc2c1Nc1ccccc1O |
| – | 4.07 | COc1ccc(Nc2cc3sc(C)c(C)c3cc2C)c(OC)c1 |
| – | 4.06 | COc1ccc(Nc2csc3ccccc23)c(OC)c1 |
| 4.3 | – | COc1ccc(Nc2cc3sc(C)c(C)c3cc2C)cc1OC |
| – | 2.29 | Cc1sc2c(C)c(Nc3ccc(C#N)cc3)cc(C)c2c1C |
| 3.81 | – | Fc1ccccc1Nc1csc2ccccc12 |
| 4.26 | – | COc1ccc(Nc2cccc3c(C)c(C)sc23)cc1OC |
| – | 3.98 | COc1ccc(Nc2cc(C)c3c(C)c(C)sc3c2C)c(Br)c1 |
| – | 2.91 | Cc1cc2c(C)c(C)sc2cc1Nc1ccccc1I |
